Measurements taken from paper PMC4730117, “In vitro Biochemical Characterization of All Barley Endosperm Starch Synthases” (Frontiers in Plant Science, 2016).
Blank lines part the entries; values can stand above or below the molecule they belong to.

Key:
[1] = target: T1, HvSSI (Hordeum vulgare, UniProt Q9M5A3); experiment: biochemical; parameters: Thermofluor (differential scanning fluorimetry, Sypro orange), shift of melting temperature of HvSSI versus no additive; conditions: 0.1 mg/mL HvSSI, 1X Sypro orange, 20 mM Tris pH 8.0, 100 mM NaCl, read-out: Δ Tm to reference; for ΔTm at 10000 µM: 10 mM
T1 construct: gene SSI; without predicted chloroplast transit peptide, N-terminal His-tag, codon-optimised, E. coli
T1 sequence (Q9M5A3 32-643): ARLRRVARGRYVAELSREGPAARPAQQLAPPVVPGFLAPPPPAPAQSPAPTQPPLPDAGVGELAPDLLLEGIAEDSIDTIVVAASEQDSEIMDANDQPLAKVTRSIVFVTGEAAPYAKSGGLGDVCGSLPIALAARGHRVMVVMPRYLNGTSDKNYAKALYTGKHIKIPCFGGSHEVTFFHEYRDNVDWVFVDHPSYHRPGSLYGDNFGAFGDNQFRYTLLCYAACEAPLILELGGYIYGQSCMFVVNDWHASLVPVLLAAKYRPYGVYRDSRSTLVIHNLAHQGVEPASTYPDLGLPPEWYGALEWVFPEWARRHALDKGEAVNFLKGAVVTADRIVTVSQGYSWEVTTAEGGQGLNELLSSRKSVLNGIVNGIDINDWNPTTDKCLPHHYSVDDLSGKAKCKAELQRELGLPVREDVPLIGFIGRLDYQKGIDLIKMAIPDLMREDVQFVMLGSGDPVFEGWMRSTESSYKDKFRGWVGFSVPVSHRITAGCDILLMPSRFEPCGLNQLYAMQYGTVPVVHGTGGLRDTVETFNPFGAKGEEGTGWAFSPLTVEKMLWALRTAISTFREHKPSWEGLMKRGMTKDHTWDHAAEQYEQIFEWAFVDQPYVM
Description: HvSSI unfolding temperatures were measured with a variant of the Thermofluor method (Niesen et al., [2007]). Details are given in S.I. The effect of additives on SSI stability was studied in some detail with the thermofluor assay; details for many additives are given in S.I. The strongest effects were from sugars, which increased protein stability by 1°C for every 50 mM hexose present as oligosaccharides, with glucose and other monosaccharides having only half the effect.

[2] = substrate: Nc1ncnc2c1ncn2[C@@H]1O[C@H](COP(=O)(O)OP(=O)(O)O[C@H]2O[C@H](CO)[C@@H](O)[C@H](O)[C@H]2O)[C@@H](O)[C@H]1O; experiment: coupled spectrophotometric assay (pyruvate kinase / lactate dehydrogenase, NADH); assay type: biochemical, Hordeum vulgare; conditions: 10 mM maltotriose acceptor, 50 mM Bicine pH 8.5, 25 mM KOAc, 2 mM MgCl2, 37°C
Source text: coupled spectrophotometric assay (pyruvate kinase / lactate dehydrogenase, NADH) on HvSSIIIb

[3] = substrate: Nc1ncnc2c1ncn2[C@@H]1O[C@H](COP(=O)(O)OP(=O)(O)O[C@H]2O[C@H](CO)[C@@H](O)[C@H](O)[C@H]2O)[C@@H](O)[C@H]1O; experiment: as above; assay type: biochemical, Hordeum vulgare; conditions: 100 mM maltose (DP = 2) acceptor, 50 mM Bicine pH 8.5, 25 mM KOAc, 2 mM MgCl2, 37°C
Source text: coupled spectrophotometric assay (pyruvate kinase / lactate dehydrogenase, NADH) on HvGBSSI

[4] = substrate: Nc1ncnc2c1ncn2[C@@H]1O[C@H](COP(=O)(O)OP(=O)(O)O[C@H]2O[C@H](CO)[C@@H](O)[C@H](O)[C@H]2O)[C@@H](O)[C@H]1O; experiment: as above; assay type: biochemical, Hordeum vulgare; conditions: 10 mM maltotriose acceptor, 50 mM Bicine pH 8.5, 25 mM KOAc, 2 mM MgCl2, 37°C; remark: listed apart in the source
Source text: coupled spectrophotometric assay (pyruvate kinase / lactate dehydrogenase, NADH) on […]

[5] = substrate: Nc1ncnc2c1ncn2[C@@H]1O[C@H](COP(=O)(O)OP(=O)(O)O[C@H]2O[C@H](CO)[C@@H](O)[C@H](O)[C@H]2O)[C@@H](O)[C@H]1O; experiment: as above; assay type: biochemical, Hordeum vulgare; conditions: 10 mM maltotriose acceptor, 50 mM Bicine pH 8.5, 25 mM KOAc, 2 mM MgCl2, 37°C; remark: listed apart in the source
Source text: coupled spectrophotometric assay (pyruvate kinase / lactate dehydrogenase, NADH) on HvSSI

ΔTm at 10000 µM [1]: 0.3 °C
Molecule: OC[C@H]1O[C@H](O[C@H]2[C@H](O)[C@@H](O)C(O)O[C@@H]2CO)[C@H](O)[C@@H](O)[C@@H]1O (mixture of isomers) [maltose]

ΔTm at 10000 µM [1]: 1.3 °C
Molecule: OC[C@H]1O[C@H](O[C@H]2[C@H](O)[C@@H](O)[C@@H](O[C@H]3[C@H](O)[C@@H](O)[C@@H](O[C@H]4[C@H](O)[C@@H](O)[C@@H](O[C@H]5[C@H](O)[C@@H](O)C(O)O[C@@H]5CO)O[C@@H]4CO)O[C@@H]3CO)O[C@@H]2CO)[C@H](O)[C@@H](O)[C@@H]1O (stereo partly shown) [maltopentaose]

ΔTm at 10000 µM [1]: 2 °C
Molecule: OCC1OC(OC2C(CO)OC(OC3C(CO)OC(OC4C(CO)OC(OC5C(CO)OC(OC6C(CO)OC(OC7C(CO)OC(OC8C(CO)OC(O)C(O)C8O)C(O)C7O)C(O)C6O)C(O)C5O)C(O)C4O)C(O)C3O)C(O)C2O)C(O)C(O)C1O (stereo not shown) [maltooctaose]

ΔTm at 10000 µM [1]: 0.4 °C
Molecule: C[C@H]1O[C@H](O[C@H]2[C@H](O)[C@@H](O)[C@@H](O[C@H]3[C@H](O)[C@@H](O)C(O)O[C@@H]3CO)O[C@@H]2CO)[C@H](O)[C@@H](O)[C@@H]1N[C@H]1C=C(CO)[C@@H](O)[C@H](O)[C@H]1O (stereo partly shown) [acarbose]

ΔTm at 100000 µM ([1]; 100 mM): 1 °C
Molecule: OC[C@H]1OC(O)[C@H](O)[C@@H](O)[C@@H]1O (stereo partly shown) [glucose]

B1: HvSSIIIb (Hordeum vulgare subsp. vulgare) (protein)
chain: SSDYPKRNPRRSSAPKPKGTASRGYAPRPSAESWTSTKKIEHGSADEDGDLGRSNGTLSGDATEQASTAEEESEVEFAGNVSSSAGLEGVAETEKEADQNQLPALSSTSMDVESVNEATEQTIIGDESSVVDFSGNVSGSVALEVVDESETEEEADQKQSSSLASTSMDSESIDRELEGYRARINALVGASTQEQDRSIIGVHDQDKSVISPNEQDISAVDVPEQGLSGVGVTREDPTKQTTSKQEITEAAVEEISSKNFVARKHSISGDGVEASKNANQQPLVDGDELKITEDEEQHEPEMQEYVRKDVDLQALKRRLEELADGNYSIGNKCFVFPELVKADSVIDLYLNRSMSALASEPDILIKGAFNGWRWNHFTERLHKSELSGDWWCCKLYIPKQAYRLDFVFFNGDTVYENNSYNDFVLHIESDIDEHSFEDFLLEEKQRELERLAAEEAERERQAEEERRKEEERAAMEADRAQAKAEVEMTRNNLQHVLGLASRYANNLWYIEPNTYKGGDRVRLYYNRSSGPLKHKNEIWLHGSYNNWTDGPSIVERLVKSDEQDGDWWYANVTLPESALVLDWVFADGPPGNARKYDNNGKRDFHAAVSKSISEDLFWVKEEHRIFERLQRERKEKEDAGRRKAEITARMKAEMKEKTMREFLLSQKHIVYTEPLEVRAGMTVDVLYNPSNTVLNGSPEVWFRCSFNRWTHPSGPLPPQKMVNAENGSHLQATVRVPLDAYMMDFVFSESEEGGMYDNRDGMDYHIPVSDSMAKEPPMHIVHIAVEMAPIAKVGGLGDVVTSLSRAIQDLGHKVEVVFPKYDCLNLSNVKDLHCRQSFTWGGTEIKVWFGKVEGISVYFLEPQNGMFWVGCVYGRNDESRFGFFCHSALEFLLQSGSSPDIIHCHDWSSAPVAWLYKQHYVHNGLPNGRVVFTIHNLEFGVHHIGKAMAHCDKATTVSYTYSKEVSGHGSIAPHYFKFHGIRNGIDSDIWDPYNDNFIPVHYTSENVVEGKSSAKRALQEKLGLHQTDSPLVGIISRLTAQKGIHLIKHAIYRTLERNGQVVLLGSAPDHRIQGDFSNLASKLHGEFDGRVKLCLTYDEPLSHLIYAGADFILVPSIFEPCGLTQLTAMRYGSIPIVRKTGGLYDTVFDVDDDKDRAREQGLEPNGFSFEGADSNGVDYALDRAITTWYDARGWFHSLCKRVMEQDWSWNRPALDYMELYHSARKN
notes: without predicted chloroplast transit peptide, N-terminal His-tag, codon-optimised, E. coli
Km [2]: 440 ± 40 µM | kcat [2]: >740 turnovers·min^-1 (DP = 3)

B2: HvGBSSI (Hordeum vulgare) (protein)
chain: ATGSGMNLVFVGAEMAPWSKTGGLGDVLGGLPPAMAANGHRVMVVSPRYDQYKDAWDTSVISEIKVADEYERVRFFHCYKRGVDRVFIDHPWFLEKVRGKTKEKIYGPDAGTDYEDNQQRFSLLCQAALEAPRILNLNNNPYFSGPYGEDVVFVCNDWHTGLLACYLKSNYQSNGIYRTAKVAFCIHNISYQGRFSFDDFAQLNLPDRFKSSFDFIDGYDKPVEGRKINWMKAGILQADKVLTVSPYYAEELISGEARGCELDNIMRLTGITGIVNGMDVSEWDPTKDKFLAVNYDITTALEAKALNKEALQAEVGLPVDRKVPLVAFIGRLEEQKGPDVMIAAIPEILKEEDVQIILLGTGKKKFEKLLKSMEEKFPGKVRAVVRFNAPLAHQMMAGADLLAVTSRFEPCGLIQLQGMRYGTPCVCASTGGLVDTIVEGKTGFHMGRLSVDCNVVEPADVKKVATTLKRAVKVVGTPAYQEMVKNCMIQDLSWKGPAKNWEDVLLELGVEGSEPGIVGEEIAPLAMENVAAP
notes: as for B1
Km [3]: 90 ± 20 µM

B3: HvSSIV (Hordeum vulgare subsp. vulgare) (protein)
chain: QQRPQRSTAGADHLNTAANVRSDEAAVSAEKERQRKYSDGDGISNLQLEDLVEMIQNTEKNILLLNQARLQAMERADKILKEKEALQRKISILETRLSETDAQHKLSSEGNFSESPLALEFDVLKEENILLKEDIEFFKSKLIEVAKTEEGIFKLEKERALLDASLRELESRFIAAQADMMKLGPRDAWWEKVEKLEDLLETTANQVERAAVILDNNHDLQDKLDKLVASLQAANISKFSSSLVDLLQQKVKLVEERFQACNREMHSQIKLYEHSIVEFHDTLSKLIEESEKRSLENFTGNMPSELWSKISLLIDGWLLEKKISYNDASLLREMVRKRDSRLREAYLSYRGTENREVMDNFLKMALPGTSSGLHIAHIAAEMAPVAKVGGLADVISGLGKALQKKGHLVEIILPKYDCMQVDQVSNLKVLDVPVQSYFEGNMFDNKIWTGTVEGLPVYFIEPQHPAMFFSRAQYYGEHDDFKRFTYFSRAALELLYQSGKKVDIIHCHDWQTAFVAPLYWDVYANLGFNSARICFTCHNFEYQGTAPARDLAWCGLDVEHLDRPDRMRDNSHGRINAVKGAVVYSNIVTTVSPTYALEVLSQGGRGLQDTLKVHSRKFLGILNGIDTDTWNPSTDRYLKVQYNAKDLQGKAANKAALREQLNLASAYPSQPLVGCITRLVAQKGVHLIRHAIYKTAELGGQFVLLGSSPVPEIQREFEGIADHFQDNNNIRLILKYDDALSHCIYAASDMFIVPSIFEPCGLTQMIAMRYGSVPIVRKTGGLNDSVFDFDDETIPVEVRNGFTFVKADEQGLSSAMERAFNCYTRKPEVWKQLVQKDMTIDFSWDTSASQYEDIYQKAVARARAAA
notes: without predicted chloroplast transit peptide, C-terminal His-tag, codon-optimised, E. coli
Km [4]: 310 ± 20 µM

B4: HvSSI (Hordeum vulgare) (protein)
chain: ARLRRVARGRYVAELSREGPAARPAQQLAPPVVPGFLAPPPPAPAQSPAPTQPPLPDAGVGELAPDLLLEGIAEDSIDTIVVAASEQDSEIMDANDQPLAKVTRSIVFVTGEAAPYAKSGGLGDVCGSLPIALAARGHRVMVVMPRYLNGTSDKNYAKALYTGKHIKIPCFGGSHEVTFFHEYRDNVDWVFVDHPSYHRPGSLYGDNFGAFGDNQFRYTLLCYAACEAPLILELGGYIYGQSCMFVVNDWHASLVPVLLAAKYRPYGVYRDSRSTLVIHNLAHQGVEPASTYPDLGLPPEWYGALEWVFPEWARRHALDKGEAVNFLKGAVVTADRIVTVSQGYSWEVTTAEGGQGLNELLSSRKSVLNGIVNGIDINDWNPTTDKCLPHHYSVDDLSGKAKCKAELQRELGLPVREDVPLIGFIGRLDYQKGIDLIKMAIPDLMREDVQFVMLGSGDPVFEGWMRSTESSYKDKFRGWVGFSVPVSHRITAGCDILLMPSRFEPCGLNQLYAMQYGTVPVVHGTGGLRDTVETFNPFGAKGEEGTGWAFSPLTVEKMLWALRTAISTFREHKPSWEGLMKRGMTKDHTWDHAAEQYEQIFEWAFVDQPYVM
notes: as for B1
Km [5]: 630 ± 20 µM
